Like-named read-outs stand apart in the source and are kept apart here.
How the values were obtained:
vitamin D receptor (VDR) = vitamin D receptor (VDR) (Homo sapiens, UniProt P11473); test: VDR-bla reporter gene assay (agonist and antagonist modes)
[1] = target: peroxisome proliferator-activated receptor gamma (PPARγ) (Homo sapiens, UniProt P37231); test: PPARγ-bla reporter gene assay (agonist and antagonist modes)
androgen receptor (AR) = androgen receptor (AR) (Homo sapiens, UniProt P10275); test: AR-bla reporter gene assay (agonist and antagonist modes)
[2] = test system: FXR-UAS-bla HEK293T cells; test: Cell viability assay (CellTiter Glo) in the same well as FXR-bla
human FXR [3] = target: T1, human FXR (Homo sapiens, UniProt Q96RI1); test: FXR-bla reporter gene assay, antagonist mode (CDCA-induced transactivation); conditions: for FXR-bla, antagonist Efficacy: Table 1, inhibition as percent of positive control (guggulsterone), 50 μM CDCA; for FXR antagonist Efficacy: Table S3
human FXR [4] = target: T1, human FXR; test: FXR-bla reporter gene assay, agonist mode (qHTS); conditions: for FXR agonist activity: FXR-bla assay; for FXR agonist mode Efficacy: Table S1, primary screening, CDCA 100%; for FXR-bla, agonist EC50: Table 1, confirmed compounds, mean ± SD of 3 experiments
[5] = Cell viability assay (CellTiter Glo) in the same well as FXR-bla; conditions: human, FXR-UAS-bla HEK293T cells
FXR-LBD [6] = target: T2, FXR-LBD (Homo sapiens, UniProt Q96RI1); test: FXR TR-FRET coactivator recruitment assay, antagonist mode (50 μM CDCA); assay type: biochemical; conditions: Table 1; in the presence of 50 μM CDCA
T2 construct: The glutathione S-transferase (GST)-tagged FXR-LBD protein; purchased Life Technologies
T2 sequence (Q96RI1 262-486 limits assumed): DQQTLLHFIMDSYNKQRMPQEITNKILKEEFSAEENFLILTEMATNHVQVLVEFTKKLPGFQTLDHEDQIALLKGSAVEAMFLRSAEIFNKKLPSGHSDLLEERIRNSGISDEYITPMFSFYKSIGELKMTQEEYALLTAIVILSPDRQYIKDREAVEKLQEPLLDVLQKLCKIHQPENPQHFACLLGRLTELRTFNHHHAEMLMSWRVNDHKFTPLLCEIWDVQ

FXR-LBD [7] = target: T2, FXR-LBD; test: FXR TR-FRET coactivator recruitment assay, agonist mode; assay type: biochemical; conditions: Table 1; coactivator SRC2-2 recruitment
[8] = Table S1, primary screening, 50 µM CDCA

Sequence of androgen receptor (AR) (P10275 with tags, fused parts or gaps limits assumed): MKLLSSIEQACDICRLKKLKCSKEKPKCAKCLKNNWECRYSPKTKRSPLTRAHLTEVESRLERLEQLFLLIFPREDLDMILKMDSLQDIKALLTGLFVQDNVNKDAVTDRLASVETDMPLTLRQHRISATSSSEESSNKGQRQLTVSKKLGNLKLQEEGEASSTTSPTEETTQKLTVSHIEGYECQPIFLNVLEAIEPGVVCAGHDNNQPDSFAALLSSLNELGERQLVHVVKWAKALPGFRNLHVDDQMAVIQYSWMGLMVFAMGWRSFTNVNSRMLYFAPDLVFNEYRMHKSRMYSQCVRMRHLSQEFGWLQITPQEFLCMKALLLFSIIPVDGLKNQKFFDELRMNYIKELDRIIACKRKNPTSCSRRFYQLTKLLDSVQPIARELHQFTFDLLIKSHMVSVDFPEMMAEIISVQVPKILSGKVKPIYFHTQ
Sequence of peroxisome proliferator-activated receptor gamma (PPARγ) (P37231 with tags, fused parts or gaps limits assumed): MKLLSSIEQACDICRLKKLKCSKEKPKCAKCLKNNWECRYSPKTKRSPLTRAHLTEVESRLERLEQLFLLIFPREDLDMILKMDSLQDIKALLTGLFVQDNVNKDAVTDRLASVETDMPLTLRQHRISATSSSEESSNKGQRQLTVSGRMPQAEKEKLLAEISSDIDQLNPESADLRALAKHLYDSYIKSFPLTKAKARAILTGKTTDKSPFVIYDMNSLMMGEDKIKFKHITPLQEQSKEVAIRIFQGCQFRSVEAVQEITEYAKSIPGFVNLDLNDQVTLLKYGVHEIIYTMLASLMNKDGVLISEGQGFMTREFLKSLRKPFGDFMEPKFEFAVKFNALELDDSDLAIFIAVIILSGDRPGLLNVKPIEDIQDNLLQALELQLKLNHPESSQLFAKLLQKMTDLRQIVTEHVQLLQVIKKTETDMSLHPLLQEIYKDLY
Sequence of vitamin D receptor (VDR) (P11473 with tags, fused parts or gaps limits assumed): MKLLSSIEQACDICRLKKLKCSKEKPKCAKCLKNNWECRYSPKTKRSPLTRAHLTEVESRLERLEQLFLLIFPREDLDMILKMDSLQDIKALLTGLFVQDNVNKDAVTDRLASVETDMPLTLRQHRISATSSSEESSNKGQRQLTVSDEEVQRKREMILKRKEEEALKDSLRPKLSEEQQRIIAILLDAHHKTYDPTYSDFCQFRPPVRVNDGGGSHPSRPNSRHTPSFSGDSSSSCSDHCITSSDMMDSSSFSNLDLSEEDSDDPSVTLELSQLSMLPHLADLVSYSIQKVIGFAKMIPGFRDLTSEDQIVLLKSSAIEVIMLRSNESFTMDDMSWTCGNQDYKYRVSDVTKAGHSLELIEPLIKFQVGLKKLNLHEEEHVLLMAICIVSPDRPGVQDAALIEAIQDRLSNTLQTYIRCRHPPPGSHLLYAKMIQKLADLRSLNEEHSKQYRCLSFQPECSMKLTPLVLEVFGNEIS
T1 sequence (Q96RI1 with tags, fused parts or gaps limits assumed): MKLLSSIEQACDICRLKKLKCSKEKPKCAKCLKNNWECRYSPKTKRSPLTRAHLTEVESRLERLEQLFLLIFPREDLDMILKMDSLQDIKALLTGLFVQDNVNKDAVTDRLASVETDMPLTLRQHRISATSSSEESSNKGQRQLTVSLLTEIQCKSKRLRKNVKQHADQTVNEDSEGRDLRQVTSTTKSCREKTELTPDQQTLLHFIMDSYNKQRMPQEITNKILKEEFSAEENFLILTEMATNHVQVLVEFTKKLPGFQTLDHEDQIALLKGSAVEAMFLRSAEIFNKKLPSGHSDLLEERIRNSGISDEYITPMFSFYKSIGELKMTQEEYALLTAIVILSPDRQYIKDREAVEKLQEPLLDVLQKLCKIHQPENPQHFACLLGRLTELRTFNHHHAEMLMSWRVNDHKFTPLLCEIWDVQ

SMILES	EC50 (human FXR [4])	FXR agonist mode Efficacy (human FXR [4])	FXR antagonist mode Efficacy (human FXR [3]; [8])	IC50 (human FXR [3])	FXR antagonist Efficacy (human FXR [3]; 50 µM CDCA)	VDR activity (vitamin D receptor (VDR))	PPARγ activity [1]	AR activity (androgen receptor (AR))	FXR agonist activity (human FXR [4])	Cytotoxicity Efficacy ([2]; Table S1, primary screening)	IC50 at 16 h [5]	further results
COC(=O)Nc1nc2ccccc2[nH]1 [Carbendazole]	–	–	–	–	–	inhibiting β-lactamase expression	inhibiting β-lactamase expression	inhibiting β-lactamase expression	–	–	–	Cytotoxicity IC50 ([2]; Table S1, primary screening): Inactive
C[C@H](CCC(=O)O)[C@H]1CC[C@H]2[C@@H]3CC[C@@H]4C[C@H](O)CC[C@]4(C)[C@H]3C[C@H](O)[C@]12C [DCA, Deoxycholic acid]	47.3 µM	50 ± 12%	–	–	–	–	–	–	selectively induced transactivation of FXR	73 ± 17%	66.5 ± 16.1 µM	FXR antagonist mode IC50 (human FXR [3]; [8]): Inactive
C[C@H]1O[C@@H](O[C@H]2[C@@H](O)C[C@H](O[C@H]3[C@@H](O)C[C@H](O[C@H]4CC[C@@]5(C)[C@H](CC[C@@H]6[C@@H]5C[C@@H](O)[C@]5(C)[C@@H](C7=CC(=O)OC7)CC[C@]65O)C4)O[C@@H]3C)O[C@@H]2C)C[C@H](O)[C@@H]1O [Digoxin]	–	–	–	–	–	–	–	–	–	35 ± 7%	0.02 ± 0.01 µM	FXR antagonist activity (human FXR [3]): inconclusive antagonists; FXR antagonist mode Efficacy (human FXR [3]): 92 ± 10%; IC50 (human FXR [3]; FXR antagonist mode IC50, Table S1, primary screening, 50 µM CDCA): 0.08 ± 0.02 µM; FXR agonist mode EC50 (human FXR [4]): Inactive
COc1cc([C@@H]2c3cc4c(cc3[C@H](O)[C@H]3COC(=O)[C@H]23)OCO4)cc(OC)c1OC [Podofilox]	–	–	–	–	–	inhibiting β-lactamase expression	inhibiting β-lactamase expression	inhibiting β-lactamase expression	–	–	–	–

The next lines start with results.

EC50 (human FXR [4])	FXR agonist mode Efficacy (human FXR [4])	FXR antagonist mode Efficacy (human FXR [3]; [8])	IC50 (human FXR [3])	FXR antagonist Efficacy (human FXR [3]; 50 µM CDCA)	SMILES	VDR activity (vitamin D receptor (VDR))	PPARγ activity [1]	AR activity (androgen receptor (AR))	FXR agonist activity (human FXR [4])	Cytotoxicity Efficacy ([2]; Table S1, primary screening)	IC50 at 16 h [5]	further results
–	20 ± 7%	75 ± 40%	–	–	C[C@H](CCC(=O)O)[C@H]1CC[C@H]2[C@@H]3CC[C@@H]4C[C@H](O)CC[C@]4(C)[C@H]3CC[C@]12C [LCA, lithocholic acid]	–	–	–	selectively induced transactivation of FXR	65 ± 22%	43.8 ± 4.18 µM	–
6.92 ± 4 µM	13 ± 1%	57 ± 35%	19.2 ± 10.4 µM	–	COC(=O)C1=C(C)NC(C)=C(C(=O)OCCN2CCN(C(c3ccccc3)c3ccccc3)CC2)C1c1cccc([N+](=O)[O-])c1 (centres unmarked) [Manidipine]	–	–	–	weak FXR agonist activity	49 ± 17%	18.2 ± 15.1 µM	–
–	–	–	2.19 ± 1.51 µM	66 ± 12%	COC(=O)Nc1nc2ccc(C(=O)c3ccccc3)cc2[nH]1 [Mebendazole]	inhibiting β-lactamase expression	inhibiting β-lactamase expression	inhibiting β-lactamase expression	–	–	–	FXR TR-FRET, antagonist IC50 (FXR-LBD [6]): Inactive; FXR TR-FRET, agonist EC50 (FXR-LBD [7]): Inactive; FXR antagonist activity (human FXR [3]; FXR-bla assay, CDCA-induced): inhibiting β-lactamase expression; FXR-bla, antagonist Efficacy (human FXR [3]): 70 ± 9%; FXR-bla, agonist EC50 (human FXR [4]): Inactive; Cell viability IC50 ([2]; Table 1, mean ± SD of 3 experiments): Inactive
3.64 ± 0.84 µM	33 ± 7%	116 ± 10%	16.7 ± 5.67 µM	116 ± 10%	COC(=O)C1=C(C)NC(C)=C(C(=O)OCCN(C)Cc2ccccc2)C1c1cccc([N+](=O)[O-])c1 (centres unmarked) [Nicardipine]	–	–	–	weak FXR agonist activity	125 ± 27%	31.9 ± 15.8 µM	FXR agonist Efficacy (human FXR [4]; Table S3): 33 ± 7%; Cytotoxicity Efficacy ([2]; Table S3): 125 ± 27%; EC50 at 16 h [5]: 31.9 ± 15.8 µM
–	–	–	1.84 ± 0.77 µM	96 ± 16%	CCc1c(C(=O)NN2CCCCC2)nn(-c2ccc(Cl)cc2Cl)c1-c1ccc(Br)cc1 [Surinabant]	–	–	–	–	–	–	FXR TR-FRET, antagonist Efficacy (FXR-LBD [6]): 73 ± 1%; FXR TR-FRET, agonist EC50 (FXR-LBD [7]): Inactive; FXR-bla, antagonist Efficacy (human FXR [3]): 86 ± 25%; FXR-bla, agonist EC50 (human FXR [4]): Inactive; IC50 ([2]; Homo sapiens, HEK-293T, read-out: Cell viability IC50): 17.1 ± 1.12 µM; Cytotoxicity Efficacy ([2]; Table S3): 66 ± 17%; EC50 at 16 h [5]: 34.1 ± 13.5 µM
